Experiments:
Assay type in all cases: in vivo
Chenopodium album [1] = assay: Test Example 4: herbicidal effect by soil treatment (symbol O)
How it was run: (§1)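 Seeds were sown in sterilized diluvial soil, covered with about 1.5 cm of soil, and the soil surface was sprayed with a water-diluted emulsion of the compound at a predetermined rate. Plants grew in a greenhouse at 25° C. to 30° C.; effects were scored visually 3 weeks after application.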

Chenopodium album [2] = assay: Test Example 5: herbicidal effect by foliage application, plastic box (symbol O); conditions: 320 g/ha, 3 weeks after application
How it was run: (§2)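 Leaf-applied emulsion, water-diluted to a preset herbicide dose, on two-week-old seedlings raised in a 25° C. to 30° C. greenhouse; injury rated at 3 weeks using earlier criteria.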

Setaria viridis = assay: Test Example 5: herbicidal effect by foliage application, plastic box (symbol G); conditions: 320 g/ha, 3 weeks after application
How it was run: as §2

rice plant = assay: Test Example 5: effect on crop by foliage application, plastic box (symbol b); conditions: 320 g/ha, 3 weeks after application
How it was run: (§3)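 Crop seed is sown alongside grass and broadleaf weed species in spots in sterilized diluvial soil, then covered to a depth of about 1.5 cm. Plants grow in a greenhouse kept at 25° C. to 30° C.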

soybean = assay: Test Example 5: effect on crop by foliage application, plastic box (symbol d); conditions: 320 g/ha, 3 weeks after application
How it was run: as §3

Lolium multiflorum Lam. = assay: Test Example 4: herbicidal effect by soil treatment (symbol K)
How it was run: as §1

Veronica persica = assay: Test Example 5: herbicidal effect by foliage application, plastic box (symbol R); conditions: 320 g/ha, 3 weeks after application
How it was run: as §2

Galium spurium = assay: Test Example 5: herbicidal effect by foliage application, plastic box (symbol Q); conditions: 320 g/ha, 3 weeks after application
How it was run: as §2

Digitaria ciliaris = assay: Test Example 4: herbicidal effect by soil treatment (symbol F)
How it was run: as §1

Scirpus juncoides = assay: Test Example 1: herbicidal activity, application before weed generation in submerged conditions (symbol B); conditions: application herbicide amount 320 g/ha
How it was run: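 Mixed weed seeds sown in alluvial soil under 4 cm of water, with rice seedlings at the 2.5-leaf stage added. Same-day treatment: emulsion diluted to a set herbicide amount onto the water. Three weeks at 25–30 °C, then graded on a six-step scale.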

Stellaria media = assay: Test Example 5: herbicidal effect by foliage application, plastic box (symbol P); conditions: 320 g/ha, 3 weeks after application
How it was run: as §2

rice = assay: Test Example 4: effect on crop by soil treatment (symbol b); conditions: for b: directly sowed rice plant, effect grade on crop: 320 g/ha; for b: directly sowed rice plant, effect on crop grade: application herbicide amount 320 g/ha
How it was run: (§4)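 Plants are raised in a greenhouse (25° C. to 30° C.) from spot-sown seed, which sits under about 1.5 cm of sterilized diluvial soil in a box shared with weed species.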

Alopecurus myosuroides = assay: Test Example 5: herbicidal effect by foliage application, plastic box (symbol J); conditions: 320 g/ha, 3 weeks after application
How it was run: as §2

Amaranthus retroflexus = assay: Test Example 4: herbicidal effect by soil treatment (symbol N)
How it was run: as §1

beet = assay: Test Example 4: effect on crop by soil treatment (symbol f); conditions: for f: beet, effect grade on crop: 320 g/ha; for f: beet, effect on crop grade: application herbicide amount 320 g/ha
How it was run: as §4

[3] = system: Echinochloa crus-galli var. crus-galli; assay: Test Example 4: herbicidal effect by soil treatment (symbol H)
How it was run: as §1

Abutilon theophrasti = assay: Test Example 5: herbicidal effect by foliage application, plastic box (symbol M); conditions: 320 g/ha, 3 weeks after application
How it was run: as §2

Leptochloa chinensis = assay: Test Example 3: herbicidal effect by foliage application, Wagner pot (symbol D); conditions: application herbicide amount 320 g/ha
How it was run: (§5)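 Alluvial soil was flooded to a depth of 0.1–0.5 cm, seeded with the weeds and rice, and kept in a greenhouse at 25–30 °C. After 14 days of growth, the foliage received a small-sprayer application of emulsion diluted to the intended rate; injury was rated at 3 weeks.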

Cyperus difformis = assay: Test Example 3: herbicidal effect by foliage application, Wagner pot (symbol E); conditions: application herbicide amount 320 g/ha
How it was run: as §5

[4] = application herbicide amount 320 g/ha

Row | SMILES | O: Chenopodium album, herbicidal effect grade (Chenopodium album [1]; 320 g/ha) | O: Chenopodium album, herbicidal effect (criteria 0-5) (Chenopodium album [2]) | G: Setaria viridis, herbicidal effect (criteria 0-5) (Setaria viridis) | b: directly sowed rice plant, effect on crop (criteria 0-5) (rice plant) | d: soybean, effect on crop (criteria 0-5) (soybean) | K: Lolium multiflorum Lam., herbicidal effect grade (Lolium multiflorum Lam.; 320 g/ha) | R: Veronica persica, herbicidal effect (criteria 0-5) (Veronica persica) | Q: Galium spurium, herbicidal effect (criteria 0-5) (Galium spurium) | F: Digitaria ciliaris, herbicidal effect grade (Digitaria ciliaris; 320 g/ha) | Herbicidal effect grade, B: Scirpus juncoides (Scirpus juncoides) | P: Stellaria media, herbicidal effect (criteria 0-5) (Stellaria media) | b: directly sowed rice plant, effect grade on crop (rice) | J: Alopecurus myosuroides, herbicidal effect (criteria 0-5) (Alopecurus myosuroides) | N: Amaranthus retroflexus, herbicidal effect grade (Amaranthus retroflexus; 320 g/ha) | f: beet, effect grade on crop (beet) | H: Echinochloa crus-galli var. crus-galli, herbicidal effect grade ([3]; 320 g/ha) | M: Abutilon theophrasti, herbicidal effect (criteria 0-5) (Abutilon theophrasti) | herbicidal effect on D (Leptochloa chinensis), grade 0-5 (Leptochloa chinensis) | O: Chenopodium album, herbicidal effect grade (Chenopodium album [1]; [4]) | G: Setaria viridis, herbicidal effect grade (Setaria viridis) | other results
1 | CON=C(C)CC1CC(OS(=O)(=O)CC[Si](C)(C)C)=C(c2c(C)cc(C)cc2C)C1=O (centres unmarked) [1-144] | 0 (Herbicidal ratio of 5% or lower (almost no effect)) | 0 (Herbicidal ratio of 5% or lower (almost no effect)) | 5 (Herbicidal ratio of 90% or more (almost completely withered)) | 5 (Herbicidal ratio of 90% or more (almost completely withered)) | 3 (Herbicidal ratio of 40% or higher and lower than 70%) | 4 (Herbicidal ratio of 70% or higher and lower than 90%) | 3 (Herbicidal ratio of 40% or higher and lower than 70%) | 2 (Herbicidal ratio of 20% or higher and lower than 40%) | 5 (Herbicidal ratio of 90% or more (almost completely withered)) | 5 (Herbicidal ratio of 90% or more (almost completely withered)) | 2 (Herbicidal ratio of 20% or higher and lower than 40%) | 5 (Herbicidal ratio of 90% or more (almost completely withered)) | 5 (Herbicidal ratio of 90% or more (almost completely withered)) | 0 (Herbicidal ratio of 5% or lower (almost no effect)) | 0 (Herbicidal ratio of 5% or lower (almost no effect)) | 5 (Herbicidal ratio of 90% or more (almost completely withered)) | 4 (Herbicidal ratio of 70% or higher and lower than 90%) | 5 (Herbicidal ratio of 90% or more (almost completely withered)) |  |  | 
2 | CON=C(C)CC1CC(OC(=O)OCc2ccccc2)=C(c2c(C)cc(C)cc2C)C1=O (centres unmarked) [1-145] | 0 (Herbicidal ratio of 5% or lower (almost no effect)) | 1 (Herbicidal ratio of 5% or higher and lower than 20%) | 5 (Herbicidal ratio of 90% or more (almost completely withered)) | 5 (Herbicidal ratio of 90% or more (almost completely withered)) | 2 (Herbicidal ratio of 20% or higher and lower than 40%) | 5 (Herbicidal ratio of 90% or more (almost completely withered)) | 3 (Herbicidal ratio of 40% or higher and lower than 70%) | 2 (Herbicidal ratio of 20% or higher and lower than 40%) | 5 (Herbicidal ratio of 90% or more (almost completely withered)) | 5 (Herbicidal ratio of 90% or more (almost completely withered)) | 2 (Herbicidal ratio of 20% or higher and lower than 40%) | 5 (Herbicidal ratio of 90% or more (almost completely withered)) | 5 (Herbicidal ratio of 90% or more (almost completely withered)) | 4 (Herbicidal ratio of 70% or higher and lower than 90%) | 0 (Herbicidal ratio of 5% or lower (almost no effect)) | 5 (Herbicidal ratio of 90% or more (almost completely withered)) | 3 (Herbicidal ratio of 40% or higher and lower than 70%) | 5 (Herbicidal ratio of 90% or more (almost completely withered)) |  |  | 
3 | CC(=O)CC1CC(OC(=O)C(C)(C)C)=C(c2c(C)cc(C)cc2C)C1=O (centres unmarked) [2-018] |  |  |  |  |  |  |  |  |  | 2 (Herbicidal ratio of 20% or higher and lower than 40%) |  |  |  |  |  |  |  | 5 (Herbicidal ratio of 90% or more (almost completely withered)) | 0 (Herbicidal ratio of 5% or lower (almost no effect)) | 1 (Herbicidal ratio of 5% or higher and lower than 20%) | b: directly sowed rice plant, effect on crop grade (rice plant): 2 (Herbicidal ratio of 20% or higher and lower than 40%); d: soybean, effect on crop grade (soybean): 0 (Herbicidal ratio of 5% or lower (almost no effect)); K: Lolium multiflorum Lam., herbicidal effect grade (Lolium multiflorum Lam.; [4]): 5 (Herbicidal ratio of 90% or more (almost completely withered)); R: Veronica persica, herbicidal effect grade (Veronica persica): 0 (Herbicidal ratio of 5% or lower (almost no effect)); Q: Galium spurium, herbicidal effect grade (Galium spurium): 0 (Herbicidal ratio of 5% or lower (almost no effect)); F: Digitaria ciliaris, herbicidal effect grade (Digitaria ciliaris; [4]): 5 (Herbicidal ratio of 90% or more (almost completely withered)); b: directly sowed rice plant, effect on crop grade (rice): 5 (Herbicidal ratio of 90% or more (almost completely withered)); J: Alopecurus myosuroides, herbicidal effect grade (Alopecurus myosuroides): 1 (Herbicidal ratio of 5% or higher and lower than 20%); N: Amaranthus retroflexus, herbicidal effect grade (Amaranthus retroflexus; [4]): 3 (Herbicidal ratio of 40% or higher and lower than 70%); f: beet, effect on crop grade (beet): 0 (Herbicidal ratio of 5% or lower (almost no effect)); H: Echinochloa crus-galli var. crus-galli, herbicidal effect grade [3, 4]: 5 (Herbicidal ratio of 90% or more (almost completely withered)); herbicidal effect on E, grade 0-5 (Cyperus difformis): 5 (Herbicidal ratio of 90% or more (almost completely withered)); M: Abutilon theophrasti, herbicidal effect grade (Abutilon theophrasti): 0 (Herbicidal ratio of 5% or lower (almost no effect))
4 | CON=C(C)CC1CC(O)=C(c2c(C)cc(-c3ccccc3)cc2C)C1=O (centres unmarked) [6-015] |  |  |  |  |  |  |  |  |  | 5 (Herbicidal ratio of 90% or more (almost completely withered)) |  |  |  |  |  |  |  | 5 (Herbicidal ratio of 90% or more (almost completely withered)) | 3 (Herbicidal ratio of 40% or higher and lower than 70%) | 5 (Herbicidal ratio of 90% or more (almost completely withered)) | O: Chenopodium album, herbicidal effect grade (Chenopodium album [2]): 4 (Herbicidal ratio of 70% or higher and lower than 90%); b: directly sowed rice plant, effect on crop grade (rice plant): 5 (Herbicidal ratio of 90% or more (almost completely withered)); d: soybean, effect on crop grade (soybean): 3 (Herbicidal ratio of 40% or higher and lower than 70%); K: Lolium multiflorum Lam., herbicidal effect grade (Lolium multiflorum Lam.; [4]): 5 (Herbicidal ratio of 90% or more (almost completely withered)); Q: Galium spurium, herbicidal effect grade (Galium spurium): 2 (Herbicidal ratio of 20% or higher and lower than 40%); F: Digitaria ciliaris, herbicidal effect grade (Digitaria ciliaris; [4]): 5 (Herbicidal ratio of 90% or more (almost completely withered)); P: Stellaria media, herbicidal effect grade (Stellaria media): 3 (Herbicidal ratio of 40% or higher and lower than 70%); b: directly sowed rice plant, effect on crop grade (rice): 5 (Herbicidal ratio of 90% or more (almost completely withered)); J: Alopecurus myosuroides, herbicidal effect grade (Alopecurus myosuroides): 5 (Herbicidal ratio of 90% or more (almost completely withered)); N: Amaranthus retroflexus, herbicidal effect grade (Amaranthus retroflexus; [4]): 5 (Herbicidal ratio of 90% or more (almost completely withered)); f: beet, effect on crop grade (beet): 0 (Herbicidal ratio of 5% or lower (almost no effect)); H: Echinochloa crus-galli var. crus-galli, herbicidal effect grade [3, 4]: 5 (Herbicidal ratio of 90% or more (almost completely withered)); herbicidal effect on E, grade 0-5 (Cyperus difformis): 5 (Herbicidal ratio of 90% or more (almost completely withered)); M: Abutilon theophrasti, herbicidal effect grade (Abutilon theophrasti): 2 (Herbicidal ratio of 20% or higher and lower than 40%)

— patent US11000033B2, “Ketone or oxime compound, and herbicide” (NISSAN CHEMICAL CORPORATION, priority 2014, dated 2021)
